# Laboratory results as given in patent EP0255256A2, “Antibiotics produced by actinomadura parvosata” (SMITHKLINE BECKMAN CORPORATION, priority 1986, dated 1988).
# Where two headings read alike, the source gives them in different places.
# Assays:
# Format in all cases: cell-based
# Staph. epidermidis 2265 [1] = assay: MBC, standard assay procedures
# Method: (§1) The in vitro minimal bactericidal concentration (MBC) of the AAJ-271 C, C2 and C3 factors and vancomycin were determined for a number of microorganisms using standard assay procedures.
# (§2) The in vitro minimal inhibitory concentration (MIC) and the in vitro minimal bactericidal concentration (MBC) of the AAJ-271 aglycones, pseudo-aglycone and vancomycin were determined for a number of microorganisms using the standard microtiter assay procedures.
# Staph. aureus HH127 [2] = assay: MBC, standard assay procedures; conditions: Staphylococcus aureus
# Method: as §1, §2
# Staph. aureus 2620 = assay: MIC, standard microtiter assay; conditions: Staphylococcus aureus, 2620, read-out: MIC in μg/ml, Staph. aureus 2620
# Method: (§3) The in vitro minimal inhibitory concentration (MIC) of the AAJ-271 complex and its factors, and vancomycin were determined for a number of microorganisms using the standard microtite'r assay procedures. The results are shown in the following tables, each of which represents a different production run of the complex.
# as §2
# Staph. epidermidis 2265 [3] = assay: MIC, standard microtiter assay; conditions: Staphylococcus epidermidis, 2265, read-out: MIC in μg/ml, Staph. epidermidis 2265
# Method: as §3, §2
# [4] = system: Strep. pyogenes (Group A); assay: MIC, standard microtiter assay
# Method: as §3, §2
# Staph. aureus 675 = assay: MIC, standard microtiter assay; conditions: Staphylococcus aureus, 675, read-out: MIC in μg/ml, Staph. aureus 675
# Method: as §3, §2
# Staph. epidermidis 2479 = assay: MIC, standard microtiter assay; conditions: Staphylococcus epidermidis, 2479, read-out: MIC in μg/ml, Staph. epidermidis 2479
# Method: as §3, §2
# [5] = system: Staph. saprophyticus 2657; assay: MIC, standard microtiter assay; conditions: Staphylococcus saprophyticus, 2657, read-out: MIC in μg/ml, Staph. saprophyticus 2657
# Method: as §3, §2
# Staph. aureus 209P [6] = assay: MIC, standard microtiter assay; conditions: Staphylococcus aureus, 209P, read-out: MIC in μg/ml, Staph. aureus 209P
# Method: as §3, §2
# Staph. aureus 910 [7] = assay: MIC, standard microtiter assay
# Method: as §3, §2
# Strep. faecalis 657 = assay: MIC, standard microtiter assay; conditions: Enterococcus faecalis, 657, read-out: MIC in μg/ml, Strep. faecalis 657
# Method: as §3, §2
# Staph. haemolyticus 651 = assay: MIC, standard microtiter assay
# Method: as §3, §2
# Staph. aureus HH127 [8] = assay: MIC, standard microtiter assay; conditions: Staphylococcus aureus, HH127, read-out: MIC in μg/ml, Staph. aureus HH127
# Method: as §3, §2
# Staph. epidermidis 2256 [9] = assay: MIC, standard microtiter assay; conditions: Staphylococcus epidermidis, 2256, read-out: MIC in μg/ml, Staph. epidermidis 2256
# Method: as §3, §2
# Staph. epidermidis 2588 [10] = assay: MIC, standard microtiter assay; conditions: Staphylococcus epidermidis, 2588, read-out: MIC in μg/ml, Staph. epidermidis 2588
# Method: as §3, §2
# Strep. faecalis 34358 = assay: MIC, standard microtiter assay; conditions: Enterococcus faecalis, 34358, read-out: MIC in μg/ml, Strep. faecalis 34358
# Method: as §3, §2
# [11] = system: Strep. pyogenes (Group A); assay: MBC, standard assay procedures; conditions: Streptococcus pyogenes, read-out: MBC in μg/ml
# Method: as §2
# [12] = system: Staph. saprophyticus 2657; assay: MBC, standard assay procedures; conditions: Staphylococcus saprophyticus, 2657, read-out: MBC in μg/ml
# Method: as §2
# Staph. aureus 209P [13] = assay: MBC, standard assay procedures; conditions: Staphylococcus aureus, 209P, read-out: MBC in μg/ml
# Method: as §2
# Staph. aureus 910 [14] = assay: MBC, standard assay procedures; conditions: Staphylococcus aureus, 910, read-out: MBC in μg/ml
# Method: as §2
# Staph. epidermidis 2261 = assay: MBC, standard assay procedures; conditions: Staphylococcus epidermidis, 2261, read-out: MBC in μg/ml
# Method: as §2
# Staph. epidermidis 2256 [15] = assay: MBC, standard assay procedures; conditions: Staphylococcus epidermidis, 2256, read-out: MBC in μg/ml
# Method: as §2
# Staph. epidermidis 2588 [16] = assay: MBC, standard assay procedures; conditions: Staphylococcus epidermidis, 2588, read-out: MBC in μg/ml
# Method: as §2
# [17] = system: Staph. aureus 209P vancomycin resistant mutant; assay: MBC, standard assay procedures; conditions: Staphylococcus aureus, read-out: MBC in μg/ml
# Method: as §2
compound,measurement,setting,value
"CN[C@H](CC(C)C)C(=O)N[C@H]1C(=O)N[C@@H](CC(N)=O)C(=O)N[C@H]2C(=O)N[C@H]3C(=O)N[C@H](C(=O)N[C@H](C(=O)O)c4cc(O)cc(O)c4-c4cc3ccc4O)[C@H](O)c3ccc(c(Cl)c3)Oc3cc2cc(c3O[C@@H]2O[C@H](CO)[C@@H](O)[C@H](O)[C@H]2O[C@H]2C[C@](C)(N)[C@H](O)[C@H](C)O2)Oc2ccc(cc2Cl)[C@H]1O [Vancomycin, vancomycin]",MBC,"Staph. epidermidis 2265 [1]; Staphylococcus epidermidis, 2265, read-out: MBC in μg/ml, Staph. epidermidis 2265, Table IX",6.3 µg/mL
same,MBC,"Staph. epidermidis 2265 [1]; Staphylococcus epidermidis, 2265, read-out: MBC in μg/ml, Staph. epidermidis 2265, Table VIII",3.1 µg/mL
same,MBC,"Staph. epidermidis 2265 [1]; Staphylococcus epidermidis, IIIB, read-out: MBC in μg/ml, Staph. epidermidis 2265, Table IIIB",6.3 µg/mL
same,MBC,"Staph. aureus HH127 [2]; HH127, read-out: MBC in μg/ml, Staph. aureus HH127, Table IX",3.1 µg/mL
same,MBC,"Staph. aureus HH127 [2]; HH127, read-out: MBC in μg/ml, Staph. aureus HH127, Table VIII",1.6 µg/mL
same,MBC,"Staph. aureus HH127 [2]; IIIB, read-out: MBC in μg/ml, Staph. aureus HH127, Table IIIB",3.1 µg/mL
same,MIC,Staph. aureus 2620; Table I,1.6 µg/mL
same,MIC,Staph. aureus 2620; Table II,3.1 µg/mL
same,MIC,Staph. aureus 2620; Table IX,3.1 µg/mL
same,MIC,Staph. aureus 2620; Table VIII,1.6 µg/mL
same,MIC,Staph. epidermidis 2265 [3]; Table I,1.6 µg/mL
same,MIC,Staph. epidermidis 2265 [3]; Table II,6.3 µg/mL
same,MIC,Staph. epidermidis 2265 [3]; Table IX,6.3 µg/mL
same,MIC,Staph. epidermidis 2265 [3]; Table VIII,3.1 µg/mL
same,MIC,"[4]; Strep. pyogenes (Group A), Table VIII",0.8 µg/mL
same,MIC,"[4]; Streptococcus pyogenes, read-out: MIC in μg/ml",0.8 µg/mL
same,MIC,Staph. aureus 675; Table I,1.6 µg/mL
same,MIC,Staph. aureus 675; Table II,3.1 µg/mL
same,MIC,Staph. aureus 675; Table IX,3.1 µg/mL
same,MIC,Staph. aureus 675; Table VIII,3.1 µg/mL
same,MIC,Staph. epidermidis 2479; Table I,1.6 µg/mL
same,MIC,Staph. epidermidis 2479; Table II,6.3 µg/mL
same,MIC,Staph. epidermidis 2479; Table IX,6.3 µg/mL
same,MIC,Staph. epidermidis 2479; Table VIII,3.1 µg/mL
same,MIC,[5]; Table I,1.6 µg/mL
same,MIC,[5]; Table VIII,3.1 µg/mL
same,MIC,Staph. aureus 209P [6]; Table I,1.6 µg/mL
same,MIC,Staph. aureus 209P [6]; Table VIII,0.8 µg/mL
same,MIC,"Staph. aureus 910 [7]; Staph. aureus 910, Table VIII",1.6 µg/mL
same,MIC,"Staph. aureus 910 [7]; Staphylococcus aureus, 910, read-out: MIC in μg/ml",1.6 µg/mL
same,MIC,Strep. faecalis 657; Table I,1.6 µg/mL
same,MIC,Strep. faecalis 657; Table II,3.1 µg/mL
same,MIC,Strep. faecalis 657; Table IX,3.1 µg/mL
same,MIC,Strep. faecalis 657; Table VIII,3.1 µg/mL
same,MIC,"Staph. haemolyticus 651; Staph. haemolyticus 651, Table II",3.1 µg/mL
same,MIC,"Staph. haemolyticus 651; Staph. haemolyticus 651, Table IX",3.1 µg/mL
same,MIC,"Staph. haemolyticus 651; Staph. haemolyticus 651, Table VIII",3.1 µg/mL
same,MIC,"Staph. haemolyticus 651; Staphylococcus haemolyticus, 651, read-out: MIC in μg/ml",3.1 µg/mL
same,MIC,Staph. aureus HH127 [8]; Table I,1.6 µg/mL
same,MIC,Staph. aureus HH127 [8]; Table II,3.1 µg/mL
same,MIC,Staph. aureus HH127 [8]; Table IX,3.1 µg/mL
same,MIC,Staph. aureus HH127 [8]; Table VIII,1.6 µg/mL
same,MIC,Staph. epidermidis 2256 [9]; Table I,1.6 µg/mL
same,MIC,Staph. epidermidis 2256 [9]; Table VIII,3.1 µg/mL
same,MIC,Staph. epidermidis 2588 [10]; Table I,1.6 µg/mL
same,MIC,Staph. epidermidis 2588 [10]; Table VIII,6.3 µg/mL
same,MIC,Strep. faecalis 34358; Table I,1.6 µg/mL
same,MIC,Strep. faecalis 34358; Table II,6.3 µg/mL
same,MIC,Strep. faecalis 34358; Table IX,6.3 µg/mL
same,MIC,Strep. faecalis 34358; Table VIII,3.1 µg/mL
same,MBC,[11],0.8 µg/mL
same,MBC,[12],6.3 µg/mL
same,MBC,Staph. aureus 209P [13],0.8 µg/mL
same,MBC,Staph. aureus 910 [14],1.6 µg/mL
same,MBC,Staph. epidermidis 2261,3.1 µg/mL
same,MBC,Staph. epidermidis 2256 [15],3.1 µg/mL
same,MBC,Staph. epidermidis 2588 [16],6.3 µg/mL
same,MBC,[17],> 100 µg/mL
